Key:
male rabbits [1] = experiment: Effects on central nervous system, modified Irwin test; assay type: in vivo, New Zealand rabbits; conditions: male rabbits, 17, 51 and 170 mg/kg by gavage, single dose
Protocol: (§1) Male New Zealand rabbits (n=6 per group) were used for pharmacological safety tests. All tests were performed orally (route recommended for humans) and the investigated parameters were determined after a single administration of CBD-SINT. CBD-SINT doses were determined by allometric extrapolation from the average dose used in human patients (25 mg/kg).
(§2) The dose of 51 mg/kg was used as the intermediate dose, stipulating a higher and a lower dose. Three dose ranges were used according to the Guide for Conducting Non-Clinical Toxicology and Pharmacological Safety Studies Necessary for Drug Development (ANVISA, 2013; Version 1.2). Thus, the doses used were 17, 51 and 170 mg/kg of CBD-SINT.
Effects on the central nervous system were assessed in male rabbits according to the modified Irwin test (Roux et al., 2005).
After 6 h-fasting, three doses of CBD (17, 51 and 170 mg/kg) were administered to different groups of male rabbits by gavage. Placebo was administered to the control group (1 mL/kg). The solid diet was released to the animals 1 hour after the treatments.
The clinical and behavioral effects were assessed at 0-15 min, 15, 30, 60, 120 and 180 min and 24 h after administrations. […]

male rabbits [2] = experiment: Electrocardiography; assay type: in vivo, New Zealand rabbits; conditions: male rabbits, 17, 51 and 170 mg/kg by gavage, one hour after treatment
Protocol: as §1, §2
a) Electrocardiography, wherein after a 6-h fasting, three doses of CBD (17, 51 and 170 mg/kg) were administered to different groups of male rabbits by gavage. Placebo was administered to the control group (1 mL/kg). One hour after treatments, all rabbits remained conscious in the supine position. Four electrodes (RL, RA, LL, and LA) were placed in the folds of both elbows and both knees. The V1 electrode was positioned in the 4th intercostal space to the right of the sternum. […] An acclimatization time of 5 min was waited, and then the cardiographic electric waves were recorded for 5 min. The electrocardiography was recorded with an ECG recorder (WinCardio, Micromed, Brasilia, Brazil).

[3] = tested on: rats with MPTP microinfusion into the substantia nigra; experiment: Open field test (motor activity), MPTP model; assay type: in vivo; conditions: oral
Protocol: The number of animals per group was ten (10) subjects. This number was estimated based on internationally recognized and scientifically validated protocols. The doses of the CBD-SINT formulation were determined by allometric extrapolation from the average dose used in human patients (600 mg/day, which in a 70 kg individual represents approximately 9 mg/kg), obtaining an average dose of ˜36 mg/kg CBD in rats.
For the calculation of the three doses, the intermediate dose was used as a reference, and then a higher and a lower dose was stipulated on a logarithmic scale. To stipulate the lowest dose, ⅓ of the median dose was used. For the higher dose, a safety factor of 10 times the lower dose was used. Thus, the doses of CBD-SINT used in this trial were: 12, 36 and 120 mg/kg. […]
CBD-SINT and placebo were administered orally (gavage) for 18 days prior to the administration of the neurotoxin by stereotactic surgery, and for another 10 days after surgery. After the administration of the neurotoxin, the behavioral (locomotor activity) and biochemical (brain dopamine dosage) parameters were evaluated after 24 hours and after 10 days. […]
The animals were placed on the central circle of the open field and its behavior evaluated for 5 minutes. […] Each animal was assessed individually, and the device was cleaned between animals with 5% alcohol solution (FIG. 15).

**Q.** C=C(C)[C@@H]1CCC(C)=C[C@H]1c1c(O)cc(CCCCC)cc1O [CBD-SINT, Cannabidiol] was tested. Which “animals' behavior or physiological status until the end of the 24 h” value (male rabbits [1]) did it give?
**A.** The value was “no significant changes”.

**Q.** And the “inactivity or refusal to consume food or water during the observation period (24 h)” value (male rabbits [1])?
**A.** The value was “none of the experimental animals was inactive or refused to consume food or water”.

**Q.** And the “PR, QRS or QT segments” value (male rabbits [2])?
**A.** Its value is “no significant changes”.

**Q.** And the “amplitudes of P, R or T waves vs placebo” value (male rabbits [2])?
**A.** Its value is “no changes”.

**Q.** And the “latency time and frequency of standing compared to CBD-FITO in the same concentration” value [3]?
**A.** The value was “a lower concentration had a more effective result”.

Source: patent US11389423B2, “Pharmaceutical composition, excipient for the composition and use of the composition” (priority 2018, dated 2022)
